Test results from publication PMC10853515, “Identification of potential inhibitor against Leishmania donovani mitochondrial DNA primase through in-silico and in vitro drug repurposing approaches” (Scientific Reports, 2024).

Biological target: T1, mitochondrial DNA primase (LdmtPRI1) (Leishmania donovani, UniProt A0A3S7WXR7)
T1 construct: gene LdCL_230015100; recombinant histidine-tagged LdmtPRI1 (pET28a), purified from E. coli BL21
T1 sequence (A0A3S7WXR7 1-533): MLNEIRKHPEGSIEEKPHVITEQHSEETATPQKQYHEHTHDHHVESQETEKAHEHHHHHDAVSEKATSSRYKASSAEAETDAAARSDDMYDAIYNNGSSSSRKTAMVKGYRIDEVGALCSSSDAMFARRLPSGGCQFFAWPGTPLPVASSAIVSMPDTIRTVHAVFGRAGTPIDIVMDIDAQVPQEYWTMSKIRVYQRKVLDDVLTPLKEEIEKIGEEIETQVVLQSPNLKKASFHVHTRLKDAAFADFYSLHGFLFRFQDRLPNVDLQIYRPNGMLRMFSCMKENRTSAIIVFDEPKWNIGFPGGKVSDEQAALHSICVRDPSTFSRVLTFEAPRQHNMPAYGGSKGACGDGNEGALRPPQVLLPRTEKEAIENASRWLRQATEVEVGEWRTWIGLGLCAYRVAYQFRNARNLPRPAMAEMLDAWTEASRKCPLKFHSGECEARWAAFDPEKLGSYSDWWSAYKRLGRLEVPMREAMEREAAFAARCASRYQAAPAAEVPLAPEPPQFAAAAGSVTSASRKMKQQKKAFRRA
Experiment: coupled primase-pyrophosphatase malachite green assay, purified enzyme
Type: biochemical

Row | IC50 [nM] | Structure (SMILES)
1 | 20.68 ± 0.03 | C/C(=C(\CCOP(=O)(O)O)SC(=O)c1ccccc1)N(C=O)Cc1cnc(C)nc1N [benfotiamine]
2 | 15.27 ± 0.03 | CCCCCOC(=O)Nc1nc(=O)n([C@@H]2O[C@H](C)[C@@H](O)[C@H]2O)cc1F [capecitabine]
